# Test results reported in publication PMC8757360 (ACS Omega, 2021).
# What was measured:
# A549 = test: MTT cytotoxicity, A549; format: cell-based; conditions: Homo sapiens, A549, 72 h, read-out: IC50 A549
# HEK-293T-ACE2h cells = conditions: human
# MCF-7 = test: MTT cytotoxicity, MCF-7; conditions: for IC50: Homo sapiens, MCF7, 72 h, read-out: IC50 MCF-7
# MDA-MB-231 = test: MTT cytotoxicity, MDA-MB-231; format: cell-based; conditions: Homo sapiens, MDA-MB-231, 72 h, read-out: IC50 MDA-MB-231
# T47D = test: MTT cytotoxicity, T47D; conditions: for IC50: Homo sapiens, T47D, 72 h, read-out: IC50 T47D; for cytotoxic effect, fold more potent than berberine: T47D cells, versus positive control berberine
# human ACE2 = human ACE2 (Homo sapiens, UniProt Q9BYF1); test: biochemical; format: binding
# Chain of human ACE2 (Q9BYF1 18-805): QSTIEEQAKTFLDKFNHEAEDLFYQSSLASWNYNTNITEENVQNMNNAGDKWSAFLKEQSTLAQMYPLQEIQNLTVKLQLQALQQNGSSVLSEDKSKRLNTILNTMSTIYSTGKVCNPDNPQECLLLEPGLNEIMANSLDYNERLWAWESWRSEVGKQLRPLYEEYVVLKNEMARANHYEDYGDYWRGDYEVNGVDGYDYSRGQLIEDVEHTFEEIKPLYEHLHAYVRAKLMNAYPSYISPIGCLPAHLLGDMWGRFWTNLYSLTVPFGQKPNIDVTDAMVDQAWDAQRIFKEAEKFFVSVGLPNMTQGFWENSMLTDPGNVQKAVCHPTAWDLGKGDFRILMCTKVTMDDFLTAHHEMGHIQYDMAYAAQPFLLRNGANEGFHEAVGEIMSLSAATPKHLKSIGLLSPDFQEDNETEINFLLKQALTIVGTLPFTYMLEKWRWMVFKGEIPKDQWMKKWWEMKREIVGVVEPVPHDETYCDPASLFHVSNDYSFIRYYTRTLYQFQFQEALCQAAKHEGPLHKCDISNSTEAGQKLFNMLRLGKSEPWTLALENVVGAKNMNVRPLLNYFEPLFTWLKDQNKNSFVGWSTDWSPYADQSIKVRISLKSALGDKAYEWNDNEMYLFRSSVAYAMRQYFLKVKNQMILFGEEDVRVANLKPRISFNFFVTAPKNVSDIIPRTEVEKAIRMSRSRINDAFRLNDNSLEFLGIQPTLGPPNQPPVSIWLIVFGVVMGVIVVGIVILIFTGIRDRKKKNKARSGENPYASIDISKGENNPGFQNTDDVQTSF
# [1] = system: SARS-CoV-2 spike pseudovirus; format: cell-based
# SARS-CoV-2 spike RBD = SARS-CoV-2 spike RBD (Severe acute respiratory syndrome coronavirus 2, UniProt P0DTC2); test: biochemical; format: binding
# [2] = system: MCF-7, T47D, MDA-MB-231, and A549; test: MTT cytotoxicity, range stated over four cancer cell lines; format: cell-based; conditions: Homo sapiens, 72 h, read-out: IC50 values ranging over four cancer cell lines
structure (smiles),measurement,setting,value
"COC(=O)c1ccc2nc(-c3ccccc3)c(-c3ccccc3)nc2c1 [4af, Methyl 2,3-diphenylquinoxaline-6-carboxylate]",IC50,A549,> 50 µM
same,CC0 (maximum nontoxic concentration),HEK-293T-ACE2h cells,100 µM
same,TC50 (concentration that caused 50% cells' death),HEK-293T-ACE2h cells,>100 µM
same,IC50,MCF-7,> 50 µM
same,IC50,MDA-MB-231,> 50 µM
same,IC50,T47D,> 50 µM
"COc1ccc(-c2nc3ccccc3nc2-c2ccccc2)cc1 [4ca, 2-(4-Methoxyphenyl)-3-phenylquinoxaline]",IC50,A549,> 50 µM
same,CC0 (maximum nontoxic concentration),HEK-293T-ACE2h cells,125 µM
same,TC50 (concentration that caused 50% cells' death),HEK-293T-ACE2h cells,276.90 ± 13.45 µM
same,Kd,human ACE2,3.67 ± 0.66 µM
same,IC50,MCF-7,> 50 µM
same,IC50,MDA-MB-231,48.8 ± 1.01 µM
same,"SI (selectivity index, TC50/IC50)",[1],14.05
same,IC50,T47D,> 50 µM
same,Kd,SARS-CoV-2 spike RBD,15.5 ± 1.14 µM
"Clc1ccc(-c2nc3ccccc3nc2-c2ccccc2)cc1 [4ia, 2-(4-Chlorophenyl)-3-phenylquinoxaline]",IC50,A549,18.6 ± 0.25 µM
same,CC0 (maximum nontoxic concentration),HEK-293T-ACE2h cells,25 µM
same,TC50 (concentration that caused 50% cells' death),HEK-293T-ACE2h cells,115.20 ± 9.72 µM
same,IC50,MCF-7,7.3 ± 1.1 µM
same,"cytotoxic effect, fold more potent than berberine","MCF-7; MCF-7 cells, versus positive control berberine",1.96 fold
same,IC50,MDA-MB-231,17.8 ± 0.69 µM
same,IC50,T47D,6.25 ± 0.73 µM
same,"cytotoxic effect, fold more potent than berberine",T47D,4.27 fold
same,IC50,[2],6.25 to 28.6 µM
"c1ccc(-c2nc3ccccc3nc2-c2ccsc2)cc1 [4ra, 2-Phenyl-3-(thiophen-3-yl)quinoxaline]",IC50,A549,> 50 µM
same,CC0 (maximum nontoxic concentration),HEK-293T-ACE2h cells,62.5 µM
same,TC50 (concentration that caused 50% cells' death),HEK-293T-ACE2h cells,337.06 ± 15.49 µM
same,IC50,MCF-7,> 50 µM
same,IC50,MDA-MB-231,> 50 µM
same,IC50,T47D,> 50 µM
"c1ccc(-c2nc3ccccc3nc2-c2ccccc2)cc1 [4aa, 2,3-Diphenylquinoxaline]",IC50,A549,26.3 ± 1.96 µM
same,CC0 (maximum nontoxic concentration),HEK-293T-ACE2h cells,>250 µM
same,TC50 (concentration that caused 50% cells' death),HEK-293T-ACE2h cells,>25 µM
same,Kd,human ACE2,5890 ± 1670 µM
same,IC50,MCF-7,16.7 ± 1.34 µM
same,IC50,MDA-MB-231,28.6 ± 1.85 µM
same,IC50,T47D,11.4 ± 1.17 µM
same,IC50,[2],6.25 to 28.6 µM
same,Kd,SARS-CoV-2 spike RBD,1000 ± 761 µM
"Clc1ccc2nc(-c3ccccc3)c(-c3ccccc3)nc2c1 [4ad, 6-Chloro-2,3-diphenylquinoxaline]",IC50,A549,> 50 µM
same,CC0 (maximum nontoxic concentration),HEK-293T-ACE2h cells,>25 µM
same,TC50 (concentration that caused 50% cells' death),HEK-293T-ACE2h cells,>500 µM
same,Kd,human ACE2,4.02 ± 2.03 µM
same,IC50,MCF-7,> 50 µM
same,IC50,MDA-MB-231,> 50 µM
same,"SI (selectivity index, TC50/IC50)",[1],>23.49
same,IC50,T47D,> 50 µM
same,Kd,SARS-CoV-2 spike RBD,8.16 ± 1.34 µM
"Fc1ccc(-c2nc3ccccc3nc2-c2ccccc2)cc1 [4ka, 2-(4-Fluorophenyl)-3-phenylquinoxaline]",CC0 (maximum nontoxic concentration),HEK-293T-ACE2h cells,25 µM
same,TC50 (concentration that caused 50% cells' death),HEK-293T-ACE2h cells,>100 µM
"c1ccc(-c2nc3cc4ccccc4cc3nc2-c2ccccc2)cc1 [4ag, 2,3-Diphenylbenzo[g]quinoxaline]",IC50,A549,44.5 ± 3.55 µM
same,CC0 (maximum nontoxic concentration),HEK-293T-ACE2h cells,50 µM
same,TC50 (concentration that caused 50% cells' death),HEK-293T-ACE2h cells,107.20 ± 1.64 µM
same,IC50,MCF-7,> 50 µM
same,IC50,MDA-MB-231,45 ± 1.57 µM
same,IC50,T47D,20.5 ± 1.64 µM
"Brc1ccc(-c2nc3ccccc3nc2-c2ccccc2)cc1 [4ja, 2-(4-Bromophenyl)-3-phenylquinoxaline]",CC0 (maximum nontoxic concentration),HEK-293T-ACE2h cells,25 µM
same,TC50 (concentration that caused 50% cells' death),HEK-293T-ACE2h cells,>100 µM
"Cc1ccc(-c2nc3ccccc3nc2-c2ccccc2)cc1 [4ba, 2-Phenyl-3-(p-tolyl)quinoxaline]",IC50,A549,24.1 ± 1.11 µM
same,CC0 (maximum nontoxic concentration),HEK-293T-ACE2h cells,125 µM
same,TC50 (concentration that caused 50% cells' death),HEK-293T-ACE2h cells,271.67 ± 13.00 µM
same,IC50,MCF-7,15.7 ± 1.18 µM
same,IC50,MDA-MB-231,21.4 ± 1.19 µM
same,IC50,T47D,9.76 ± 1.3 µM
same,IC50,[2],6.25 to 28.6 µM
"COc1ccc2nc(-c3ccccc3)c(-c3ccccc3)nc2c1 [4ac, 6-Methoxy-2,3-diphenylquinoxaline]",IC50,A549,> 50 µM
same,CC0 (maximum nontoxic concentration),HEK-293T-ACE2h cells,50 µM
same,TC50 (concentration that caused 50% cells' death),HEK-293T-ACE2h cells,116.03 ± 4.28 µM
same,IC50,MCF-7,> 50 µM
same,IC50,MDA-MB-231,> 50 µM
same,IC50,T47D,> 50 µM
"Cc1ccc2nc(-c3ccccc3)c(-c3ccccc3)nc2c1 [4ab, 6-Methyl-2,3-diphenylquinoxaline]",IC50,A549,19.7 ± 1.28 µM
same,CC0 (maximum nontoxic concentration),HEK-293T-ACE2h cells,62.5 µM
same,TC50 (concentration that caused 50% cells' death),HEK-293T-ACE2h cells,288.40 ± 17.65 µM
same,IC50,MCF-7,10 ± 0.55 µM
same,IC50,MDA-MB-231,18.2 ± 1.34 µM
same,IC50,T47D,6.77 ± 0.57 µM
same,"cytotoxic effect, fold more potent than berberine",T47D,3.94 fold
same,IC50,[2],6.25 to 28.6 µM
"N#Cc1ccc2nc(-c3ccccc3)c(-c3ccccc3)nc2c1 [4ae, 2,3-Diphenylquinoxaline-6-carbonitrile]",IC50,A549,> 50 µM
same,CC0 (maximum nontoxic concentration),HEK-293T-ACE2h cells,125 µM
same,TC50 (concentration that caused 50% cells' death),HEK-293T-ACE2h cells,303.27 ± 9.51 µM
same,IC50,MCF-7,> 50 µM
same,IC50,MDA-MB-231,> 50 µM
same,IC50,T47D,> 50 µM
"c1ccc(-c2nc3ccccc3nc2-c2ccc3ccccc3c2)cc1 [4pa, 2-(Naphthalen-2-yl)-3-phenylquinoxaline]",IC50,A549,> 50 µM
same,CC0 (maximum nontoxic concentration),HEK-293T-ACE2h cells,>25 µM
same,TC50 (concentration that caused 50% cells' death),HEK-293T-ACE2h cells,>250 µM
same,IC50,MCF-7,> 50 µM
same,IC50,MDA-MB-231,> 50 µM
same,IC50,T47D,> 50 µM
"C=CCc1cc(-c2cc(CC=C)c3oc(=O)n(Cc4nnc(-c5ccc(OC)cc5)o4)c3c2)c2oc(=O)n(Cc3nnc(-c4ccc(OC)cc4)o3)c2c1 [6p, 5′,7-Diallyl-3,3′-bis((5-(4-methoxyphenyl)-1,3,4-oxadiazol-2-yl)methyl)-[5,7′-bibenzo[d]oxazole]-2,2′(3H,3′H)-dione, reference compound]",CC0 (maximum nontoxic concentration),HEK-293T-ACE2h cells,>100 µM
same,TC50 (concentration that caused 50% cells' death),HEK-293T-ACE2h cells,>100 µM
same,"SI (selectivity index, TC50/IC50)",[1],>8.40
"COc1ccc2cc3[n+](cc2c1OC)CCc1cc2c(cc1-3)OCO2 [berberine, reference compound]",IC50,A549,5.22 ± 0.44 µM
same,IC50,MCF-7,14.3 ± 1.44 µM
same,IC50,MDA-MB-231,18 ± 1.91 µM
same,IC50,T47D,26.7 ± 2.45 µM
"c1ccc(-c2ccc(-c3nc4ccccc4nc3-c3ccccc3)cc2)cc1 [4ha, 2-([1,1′-Biphenyl]-4-yl)-3-phenylquinoxaline]",IC50,A549,> 50 µM
same,CC0 (maximum nontoxic concentration),HEK-293T-ACE2h cells,>250 µM
same,TC50 (concentration that caused 50% cells' death),HEK-293T-ACE2h cells,>500 µM
same,Kd,human ACE2,238 ± 57.3 µM
same,IC50,MCF-7,> 50 µM
same,IC50,MDA-MB-231,> 50 µM
same,"SI (selectivity index, TC50/IC50)",[1],>3.50
same,IC50,T47D,> 50 µM
same,Kd,SARS-CoV-2 spike RBD,135 ± 17.7 µM
